Active and inactive are the calls of the source. No cut-off for these calls is given here.
Experiments:
[1] = tested on: A549; assay: Induction of apoptosis in human A549 cells at 4 uM incubated for 48 hrs by Annexin V-FITC/PI staining based flow cytometry method; type: functional
[2] = target: CYP2C9 (Homo sapiens, UniProt P11712); assay: Inhibition of CYP2C9 (unknown origin) at 10 uM incubated for 20 mins in presence of NADPH by LC/MS/MS analysis relative to control; type: ADME
[3] = target: Voltage-gated inwardly rectifying potassium channel KCNH2 (Homo sapiens, UniProt Q12809); assay: Inhibition of human ERG stably expressed in CHO cells by patch clamp assay; type: toxicity, cell-based
Sequence of Voltage-gated inwardly rectifying potassium channel KCNH2 (Q12809 whole entry): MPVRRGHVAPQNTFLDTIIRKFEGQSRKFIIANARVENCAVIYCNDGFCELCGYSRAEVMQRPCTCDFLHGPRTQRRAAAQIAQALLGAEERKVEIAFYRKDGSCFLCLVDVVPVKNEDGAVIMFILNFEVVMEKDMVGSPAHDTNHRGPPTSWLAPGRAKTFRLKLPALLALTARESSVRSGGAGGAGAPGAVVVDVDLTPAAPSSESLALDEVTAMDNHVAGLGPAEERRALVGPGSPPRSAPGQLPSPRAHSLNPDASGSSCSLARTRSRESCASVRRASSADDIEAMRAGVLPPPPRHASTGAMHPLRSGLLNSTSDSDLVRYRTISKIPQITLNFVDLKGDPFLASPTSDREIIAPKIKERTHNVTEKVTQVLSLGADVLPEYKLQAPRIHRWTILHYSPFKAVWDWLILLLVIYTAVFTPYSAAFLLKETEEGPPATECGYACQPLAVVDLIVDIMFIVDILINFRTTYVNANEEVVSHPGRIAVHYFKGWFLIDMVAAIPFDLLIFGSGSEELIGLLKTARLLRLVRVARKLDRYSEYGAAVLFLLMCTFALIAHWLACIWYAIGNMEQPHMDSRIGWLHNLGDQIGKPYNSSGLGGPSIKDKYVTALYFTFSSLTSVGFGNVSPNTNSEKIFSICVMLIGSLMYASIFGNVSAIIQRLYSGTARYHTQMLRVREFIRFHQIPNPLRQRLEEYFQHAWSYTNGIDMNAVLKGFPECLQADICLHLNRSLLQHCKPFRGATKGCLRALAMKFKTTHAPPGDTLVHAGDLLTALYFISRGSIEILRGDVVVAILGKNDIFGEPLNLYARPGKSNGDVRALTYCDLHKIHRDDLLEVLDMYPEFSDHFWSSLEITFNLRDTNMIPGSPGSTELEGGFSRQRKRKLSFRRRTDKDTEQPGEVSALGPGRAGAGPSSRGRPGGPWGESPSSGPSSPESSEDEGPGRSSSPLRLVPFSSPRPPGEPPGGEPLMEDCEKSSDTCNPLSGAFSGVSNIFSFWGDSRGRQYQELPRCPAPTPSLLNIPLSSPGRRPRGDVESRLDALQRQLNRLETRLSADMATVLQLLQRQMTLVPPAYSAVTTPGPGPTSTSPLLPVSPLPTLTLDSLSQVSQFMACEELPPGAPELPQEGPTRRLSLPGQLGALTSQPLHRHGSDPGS

[4] = target: T1, Amine oxidase [flavin-containing] A (Homo sapiens, UniProt P21397)
T1 sequence (P21397 whole entry): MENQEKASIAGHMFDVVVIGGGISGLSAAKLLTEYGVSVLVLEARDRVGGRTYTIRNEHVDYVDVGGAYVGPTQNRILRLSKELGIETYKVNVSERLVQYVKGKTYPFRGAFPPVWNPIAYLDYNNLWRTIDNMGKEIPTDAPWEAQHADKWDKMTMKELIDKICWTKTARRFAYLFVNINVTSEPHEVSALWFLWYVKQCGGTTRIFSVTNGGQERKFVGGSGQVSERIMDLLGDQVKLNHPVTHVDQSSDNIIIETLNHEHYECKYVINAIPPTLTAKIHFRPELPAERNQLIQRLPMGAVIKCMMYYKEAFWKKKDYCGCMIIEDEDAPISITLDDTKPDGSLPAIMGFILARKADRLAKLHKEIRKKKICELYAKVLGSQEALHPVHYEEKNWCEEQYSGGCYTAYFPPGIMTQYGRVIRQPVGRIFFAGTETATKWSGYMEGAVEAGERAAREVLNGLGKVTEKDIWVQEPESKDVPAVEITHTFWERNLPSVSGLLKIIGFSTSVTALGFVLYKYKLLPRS
Description: Inhibition of recombinant MAO-A (unknown origin) incubated for 60 mins by luminescence based flow cytometry

[5] = target: T2, CYP1A2 (Homo sapiens, UniProt P05177); assay: Inhibition of CYP1A2 (unknown origin) at 10 uM incubated for 20 mins in presence of NADPH by LC/MS/MS analysis relative to control; type: ADME
T2 sequence (P05177 whole entry): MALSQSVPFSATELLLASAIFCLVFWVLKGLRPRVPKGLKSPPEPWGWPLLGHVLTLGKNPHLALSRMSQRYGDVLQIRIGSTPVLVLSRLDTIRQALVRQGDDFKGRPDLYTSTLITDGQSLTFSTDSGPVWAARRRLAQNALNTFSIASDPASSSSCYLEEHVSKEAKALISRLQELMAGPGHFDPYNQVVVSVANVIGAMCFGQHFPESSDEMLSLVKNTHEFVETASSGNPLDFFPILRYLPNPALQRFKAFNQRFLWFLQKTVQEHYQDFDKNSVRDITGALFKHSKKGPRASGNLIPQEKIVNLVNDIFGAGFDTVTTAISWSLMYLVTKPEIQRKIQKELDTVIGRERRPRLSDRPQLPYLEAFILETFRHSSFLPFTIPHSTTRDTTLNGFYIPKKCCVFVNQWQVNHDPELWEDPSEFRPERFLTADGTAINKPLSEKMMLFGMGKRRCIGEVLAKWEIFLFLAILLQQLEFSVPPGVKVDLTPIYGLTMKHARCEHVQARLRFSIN

[6] = tested on: MGC-803; assay: cells; conditions: Homo sapiens, MGC-803, 72 h
Description: Antiproliferative activity against human MGC-803 cells assessed as inhibition of cell growth incubated for 72 hrs by CCK-8 assay

[7] = target: CYP2C19 (Homo sapiens, UniProt P33261); assay: Inhibition of CYP2C19 (unknown origin) at 10 uM incubated for 20 mins in presence of NADPH by LC/MS/MS analysis relative to control; type: ADME
Sequence of CYP2C19 (P33261 whole entry): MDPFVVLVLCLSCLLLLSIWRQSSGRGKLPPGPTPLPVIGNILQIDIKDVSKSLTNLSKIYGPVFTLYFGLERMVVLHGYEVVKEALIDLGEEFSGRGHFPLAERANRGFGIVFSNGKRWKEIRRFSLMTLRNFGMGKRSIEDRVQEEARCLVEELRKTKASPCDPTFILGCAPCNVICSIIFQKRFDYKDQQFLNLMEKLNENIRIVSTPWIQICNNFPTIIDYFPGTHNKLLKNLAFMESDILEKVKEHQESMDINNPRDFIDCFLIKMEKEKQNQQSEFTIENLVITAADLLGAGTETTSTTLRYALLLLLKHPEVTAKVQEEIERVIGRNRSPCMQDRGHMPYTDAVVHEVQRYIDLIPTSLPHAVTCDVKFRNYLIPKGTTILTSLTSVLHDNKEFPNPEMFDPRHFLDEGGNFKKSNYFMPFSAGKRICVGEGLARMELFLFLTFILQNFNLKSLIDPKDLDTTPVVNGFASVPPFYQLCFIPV

[8] = tested on: A549; assay: Antitumor activity against human A549 cells xenografted in BALB/c mouse assessed as reduction in tumor growth at 10 mg/kg,ip administrated for 15 days; type: functional, organism-based; conditions: time 15.0 day
[9] = Toxicity in BALB/c mouse xenografted with human A549 cells assessed as change in body weight at 10 mg/kg,ip administrated for 15 days; type: organism-based; conditions: in vivo, 360 h, time 15 day
[10] = Intrinsic clearance in human liver microsomes measured upto 60 mins in presence of NADPH by LC/MS/MS analysis; type: ADME, Microsome; conditions: read-out: CLH
[11] = tested on: HeLa; assay: Antiproliferative activity against human HeLa cells assessed as inhibition of cell growth incubated for 72 hrs by CCK-8 assay; type: functional, cell-based
[12] = tested on: A549; assay: cells; conditions: Homo sapiens, A549, 72 h
Description: Antiproliferative activity against human A549 cells assessed as inhibition of cell growth incubated for 72 hrs by CCK-8 assay

[13] = Intrinsic clearance in human liver measured upto 60 mins in presence of NADPH by LC/MS/MS analysis; type: ADME, tissue-based; conditions: read-out: CLH
[14] = target: T3, Amine oxidase [flavin-containing] B (Homo sapiens, UniProt P27338)
T3 sequence (P27338 whole entry): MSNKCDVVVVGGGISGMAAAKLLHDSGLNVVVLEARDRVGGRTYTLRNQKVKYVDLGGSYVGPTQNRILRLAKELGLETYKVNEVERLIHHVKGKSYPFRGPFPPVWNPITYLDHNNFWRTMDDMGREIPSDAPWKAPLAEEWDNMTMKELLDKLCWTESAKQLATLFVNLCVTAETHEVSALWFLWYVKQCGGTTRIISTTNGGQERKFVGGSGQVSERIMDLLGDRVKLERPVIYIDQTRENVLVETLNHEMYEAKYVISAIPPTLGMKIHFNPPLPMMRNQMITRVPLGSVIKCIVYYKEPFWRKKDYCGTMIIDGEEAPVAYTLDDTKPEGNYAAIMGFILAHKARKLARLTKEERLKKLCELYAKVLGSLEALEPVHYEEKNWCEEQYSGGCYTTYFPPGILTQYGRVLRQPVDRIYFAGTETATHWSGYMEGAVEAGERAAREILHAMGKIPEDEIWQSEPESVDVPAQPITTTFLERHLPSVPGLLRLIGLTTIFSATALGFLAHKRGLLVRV
Description: Inhibition of recombinant MAO-B (unknown origin) incubated for 60 mins by luminescence based flow cytometry

[15] = tested on: MCF7; assay: cells; conditions: Homo sapiens, MCF7, 72 h
Description: Antiproliferative activity against human MCF7 cells assessed as inhibition of cell growth incubated for 72 hrs by CCK-8 assay

[16] = tested on: NCI-H460; assay: cells; conditions: Homo sapiens, NCI-H460, 72 h
Description: Antiproliferative activity against human NCI-H460 cells assessed as inhibition of cell growth incubated for 72 hrs by CCK-8 assay

[17] = target: CYP3A4 (Homo sapiens, UniProt P08684); assay: Inhibition of CYP3A4 (unknown origin) at 10 uM incubated for 20 mins in presence of NADPH by LC/MS/MS analysis relative to control; type: ADME
Sequence of CYP3A4 (P08684 whole entry): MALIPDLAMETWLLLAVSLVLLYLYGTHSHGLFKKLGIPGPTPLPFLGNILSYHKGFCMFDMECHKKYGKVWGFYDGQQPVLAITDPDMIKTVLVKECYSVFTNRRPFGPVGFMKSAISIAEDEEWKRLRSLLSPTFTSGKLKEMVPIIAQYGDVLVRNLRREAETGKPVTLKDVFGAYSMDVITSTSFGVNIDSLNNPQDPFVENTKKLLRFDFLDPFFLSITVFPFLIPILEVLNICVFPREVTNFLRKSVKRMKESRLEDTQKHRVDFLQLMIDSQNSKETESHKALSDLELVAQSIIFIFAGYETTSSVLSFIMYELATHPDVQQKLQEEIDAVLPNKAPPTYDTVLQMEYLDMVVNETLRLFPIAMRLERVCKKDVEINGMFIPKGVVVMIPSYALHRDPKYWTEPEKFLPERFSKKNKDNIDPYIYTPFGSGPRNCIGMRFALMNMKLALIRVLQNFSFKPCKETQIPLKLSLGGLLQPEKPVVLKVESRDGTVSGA

[18] = target: CYP2D6 (Homo sapiens, UniProt P10635); assay: Inhibition of CYP2D6 (unknown origin) at 10 uM incubated for 20 mins in presence of NADPH by LC/MS/MS analysis relative to control; type: ADME
Sequence of CYP2D6 (P10635 whole entry): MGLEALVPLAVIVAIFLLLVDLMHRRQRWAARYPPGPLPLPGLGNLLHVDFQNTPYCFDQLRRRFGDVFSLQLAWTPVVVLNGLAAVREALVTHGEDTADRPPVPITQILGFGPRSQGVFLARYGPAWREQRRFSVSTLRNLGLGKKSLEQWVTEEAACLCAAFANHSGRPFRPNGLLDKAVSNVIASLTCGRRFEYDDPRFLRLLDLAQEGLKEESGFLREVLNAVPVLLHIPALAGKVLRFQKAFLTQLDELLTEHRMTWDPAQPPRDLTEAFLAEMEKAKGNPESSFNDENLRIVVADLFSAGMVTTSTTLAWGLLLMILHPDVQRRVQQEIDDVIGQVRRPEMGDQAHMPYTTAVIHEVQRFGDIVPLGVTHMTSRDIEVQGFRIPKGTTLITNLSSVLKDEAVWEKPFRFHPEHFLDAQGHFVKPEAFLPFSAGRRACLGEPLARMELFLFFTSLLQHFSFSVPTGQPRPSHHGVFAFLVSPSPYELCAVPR

[19] = in vitro; conditions: human, THLE-2 cells
Description: Antiproliferative activity against human THLE-2 cells assessed as inhibition of cell growth incubated for 72 hrs by CCK-8 assay

[20] = Half life in human liver microsomes measured upto 60 mins in presence of NADPH by LC/MS/MS analysis; type: ADME, Microsome

Sequence of CYP2C9 (P11712 whole entry): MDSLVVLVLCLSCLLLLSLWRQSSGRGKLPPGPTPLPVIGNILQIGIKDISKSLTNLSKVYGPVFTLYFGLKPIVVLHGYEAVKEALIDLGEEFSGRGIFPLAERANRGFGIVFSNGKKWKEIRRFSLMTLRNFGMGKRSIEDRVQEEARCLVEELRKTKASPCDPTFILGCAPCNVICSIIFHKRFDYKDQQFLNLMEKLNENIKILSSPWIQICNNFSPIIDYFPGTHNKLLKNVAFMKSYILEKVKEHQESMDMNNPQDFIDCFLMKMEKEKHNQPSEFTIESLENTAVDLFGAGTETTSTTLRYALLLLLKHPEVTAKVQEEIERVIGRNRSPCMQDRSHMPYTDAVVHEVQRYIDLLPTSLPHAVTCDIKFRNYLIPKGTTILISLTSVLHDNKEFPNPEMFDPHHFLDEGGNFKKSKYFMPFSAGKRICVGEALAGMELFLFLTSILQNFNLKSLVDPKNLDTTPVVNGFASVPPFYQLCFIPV

## Cc1ccc(-c2cc3occ(CN4CCC[C@H](N)C4)c3cc2-c2ccc(C#N)cc2)cc1
[1]
  Activity: 20.94%
[2]
  inhibition at 20 min, 10 µM: 3.6%
[3]
  IC50: 6.06 µM
[4]
  IC50: > 20 µM
[5]
  inhibition at 20 min, 10 µM: 4.9%
[6]
  IC50: 11.5 µM
[7]
  inhibition at 20 min, 10 µM: 10.5%
[8]
  Activity: Active
[9]
  Activity: Non-Toxic
[10]
  microsomal CLint: 24.5 µL/min/mg
[11]
  IC50: 10.2 µM
[12]
  IC50: 3.6 µM
[13]
  CLint scaled: 22.1 mL/min/kg
[14]
  IC50: > 20 µM
[15]
  IC50: 10.5 µM
[16]
  IC50: 4.8 µM
[17]
  inhibition at 20 min, 10 µM: 19%
[18]
  inhibition at 20 min, 10 µM: 88.6%
[19]
  IC50 at 72 h: 5.7 µM
[20]
  half-life: 56.6 min

Reference: ChEMBL document CHEMBL5352388 (Eur J Med Chem, 2022)
